Reference: patent US10785975B2, “Water and feed antimicrobial preservative” (priority 2009, dated 2020)
Where two headings read alike, the source gives them in different places.

What was measured:
Salmonella typhimurium [1] = test: Example 2: effect of carbon chain length of individual organic acids on antimicrobial activity in water; assay type: cell-based; parameters: MIC at 4 HR / MIC at 24 FIR: unit not given here; conditions: for MIC at 4 HR / MIC at 24 FIR: Minimum Inhibitory Concentration of Organic Acids against Salmonella, by linear regression; for MIC at 24 FIR: 24 hours; for killing at 0.05 % / killing at 0.075 % / killing at 0.1 % / killing at […]: Salmonella enterica, TYPHIMURIUM
Experimental: 100 ul of a nutrient broth culture of Salmonella typhimurium was added to each dilution tube. After addition, tubes were vortexed and allowed to stand. At 4 and 24 hours after addition of the inoculum, 100 ul of the solution was plated on agar (triplicate plates). Plates were incubated at 37° C. for 24 hours prior to enumeration. The minimum effective dose of each acid was be determined by linear regression: […]

Salmonella typhimurium [2] = test: Example 1: effect of pH buffering of acetic and propionic acid on antimicrobial activity in water; assay type: cell-based
Experimental: Propionic and acetic acids were buffered with ammonium hydroxide to pHs ranging from 1 to 7. Acid contents of the buffered solutions were determined by a weight to weight ratio calculation to obtain the same acid content in the test solutions. […] The pHs of the deionized water solutions were recorded and any problems with solubility noted.
100 ul of a nutrient broth culture of Salmonella typhimurium was added to each dilution tube. After addition, tubes were vortexed and allowed to stand. At 4 and 24 hours after addition of the inoculum, 100 ul of the solution was plated on Standard Plate agar (triplicate plates). Plates were incubated at 37° C. for 24 hours prior to enumeration. The minimum effective dose of each acid was determined by linear regression.

[3] = Product Conc. 0.025 (% acid solution in water), 4 hr
[4] = Product Conc. 0.025 (% acid solution in water), 24 hr
[5] = Product Conc. 0.05 (% acid solution in water), 4 hr
[6] = Product Conc. 0.05 (% acid solution in water), 24 hr
[7] = Product Conc. 0.075 (% acid solution in water), 4 hr
[8] = Product Conc. 0.075 (% acid solution in water), 24 hr
[9] = Product Conc. 0.1 (% acid solution in water), 4 hr
[10] = Product Conc. 0.1 (% acid solution in water), 24 hr
[11] = 4 h, read-out: Salmonella at time Interval 4 hr % reduction
[12] = 24 h, read-out: Salmonella at time Interval 24 hr % reduction
[13] = Product Conc. 0.025 (% acid solution in water), 4 hr, read-out: Salmonella at time Interval 4 hr % reduction
[14] = Product Conc. 0.025 (% acid solution in water), 24 hr, read-out: Salmonella at time Interval 24 hr % reduction
[15] = Product Conc. 0.05 (% acid solution in water), 4 hr, read-out: Salmonella at time Interval 4 hr % reduction
[16] = Product Conc. 0.05 (% acid solution in water), 24 hr, read-out: Salmonella at time Interval 24 hr % reduction
[17] = Product Conc. 0.075 (% acid solution in water), 4 hr, read-out: Salmonella at time Interval 4 hr % reduction
[18] = Product Conc. 0.075 (% acid solution in water), 24 hr, read-out: Salmonella at time Interval 24 hr % reduction
[19] = Product Conc. 0.1 (% acid solution in water), 4 hr, read-out: Salmonella at time Interval 4 hr % reduction
[20] = Product Conc. 0.1 (% acid solution in water), 24 hr, read-out: Salmonella at time Interval 24 hr % reduction

| MIC at 4 HR (Salmonella typhimurium [1]; 4 hr) | MIC at 24 FIR (Salmonella typhimurium [1]) | SMILES | Salmonella at time Interval 4 hr cfu/g (Salmonella typhimurium [1]; [3]) [cfu/g] | Salmonella at time Interval 24 hr cfu/g (Salmonella typhimurium [1]; [4]) [cfu/g] | Salmonella at time Interval 4 hr cfu/g (Salmonella typhimurium [1]; [5]) [cfu/g] | Salmonella at time Interval 24 hr cfu/g (Salmonella typhimurium [1]; [6]) [cfu/g] | Salmonella at time Interval 4 hr cfu/g (Salmonella typhimurium [1]; [7]) [cfu/g] | Salmonella at time Interval 24 hr cfu/g (Salmonella typhimurium [1]; [8]) [cfu/g] | Salmonella at time Interval 4 hr cfu/g (Salmonella typhimurium [1]; [9]) [cfu/g] | Salmonella at time Interval 24 hr cfu/g (Salmonella typhimurium [1]; [10]) [cfu/g] | killing at […] (Salmonella typhimurium [1]; [13]) [%] | killing at […] (Salmonella typhimurium [1]; [14]) [%] | killing at 0.05 % (Salmonella typhimurium [1]; [15]) [%] | killing at 0.05 % (Salmonella typhimurium [1]; [16]) [%] | killing at 0.075 % (Salmonella typhimurium [1]; [17]) [%] | killing at 0.075 % (Salmonella typhimurium [1]; [18]) [%] | killing at 0.1 % (Salmonella typhimurium [1]; [19]) [%] | killing at 0.1 % (Salmonella typhimurium [1]; [20]) [%] | also measured |
| --- | --- | --- | --- | --- | --- | --- | --- | --- | --- | --- | --- | --- | --- | --- | --- | --- | --- | --- | --- |
| 0.072 | <0.025 | CCCCCCCCCCCC(=O)O [Lauric acid/KOH, Lauric acid] | 670 | 20 | 0 | 0 | 0 | 0 | 0 | 0 | 58 | 99 | 100 | 100 | 100 | 100 | 100 | 100 | – |
| 0.109 | 0.090 | CCCCCCCC(=O)O [Caprylic acid/KOH, Caprylic acid] | 1567 | 1400 | 1333 | 797 | 1100 | 77 | 0 | 0 | 2 | 18 | 17 | 53 | 31 | 95 | 100 | 100 | – |
| – | – | CCC(=O)O [Propionic pH 1, Propionic acid] | – | – | – | – | – | – | – | – | – | – | – | – | – | – | – | – | MIC at 4 Hr (Salmonella typhimurium [2]; Minimum Inhibitory Concentrations, by linear regression over 0.025-0.1% acid solutions, 4 hr, pH 1): 0.131; MIC at 24 HR (Salmonella typhimurium [2]; Minimum Inhibitory Concentrations, by linear regression over 0.025-0.1% acid solutions, 24 hr, pH 1): 0.066; Salmonella at time Interval 4 hr % reduction (Salmonella typhimurium [2]; [3]): 20%; Salmonella at time Interval 4 hr cfu/g (Salmonella typhimurium [2]; [3]): 1200 cfu/g; Salmonella at time Interval 24 hr % reduction (Salmonella typhimurium [2]; [4]): 89%; Salmonella at time Interval 24 hr cfu/g (Salmonella typhimurium [2]; [4]): 133 cfu/g; Salmonella at time Interval 4 hr % reduction (Salmonella typhimurium [2]; [5]): 39%; Salmonella at time Interval 4 hr cfu/g (Salmonella typhimurium [2]; [5]): 923 cfu/g; Salmonella at time Interval 24 hr % reduction (Salmonella typhimurium [2]; [6]): 97%; Salmonella at time Interval 24 hr cfu/g (Salmonella typhimurium [2]; [6]): 37 cfu/g; Salmonella at time Interval 4 hr % reduction (Salmonella typhimurium [2]; [7]): 65%; Salmonella at time Interval 4 hr cfu/g (Salmonella typhimurium [2]; [7]): 530 cfu/g; Salmonella at time Interval 24 hr % reduction (Salmonella typhimurium [2]; [8]): 98%; Salmonella at time Interval 24 hr cfu/g (Salmonella typhimurium [2]; [8]): 23 cfu/g; Salmonella at time Interval 4 hr % reduction (Salmonella typhimurium [2]; [9]): 70%; Salmonella at time Interval 4 hr cfu/g (Salmonella typhimurium [2]; [9]): 450 cfu/g; Salmonella at time Interval 24 hr % reduction (Salmonella typhimurium [2]; [10]): 99%; Salmonella at time Interval 24 hr cfu/g (Salmonella typhimurium [2]; [10]): 10 cfu/g |

| SMILES | MIC at 4 HR (Salmonella typhimurium [1]; 4 hr) | MIC at 24 FIR (Salmonella typhimurium [1]) | Salmonella at time Interval 4 hr cfu/g (Salmonella typhimurium [1]; [3]) [cfu/g] | Salmonella at time Interval 24 hr cfu/g (Salmonella typhimurium [1]; [4]) [cfu/g] | Salmonella at time Interval 4 hr cfu/g (Salmonella typhimurium [1]; [5]) [cfu/g] | Salmonella at time Interval 24 hr cfu/g (Salmonella typhimurium [1]; [6]) [cfu/g] | Salmonella at time Interval 4 hr cfu/g (Salmonella typhimurium [1]; [7]) [cfu/g] | Salmonella at time Interval 24 hr cfu/g (Salmonella typhimurium [1]; [8]) [cfu/g] | Salmonella at time Interval 4 hr cfu/g (Salmonella typhimurium [1]; [9]) [cfu/g] | Salmonella at time Interval 24 hr cfu/g (Salmonella typhimurium [1]; [10]) [cfu/g] | killing at […] (Salmonella typhimurium [1]; [13]) [%] | killing at […] (Salmonella typhimurium [1]; [14]) [%] | killing at 0.05 % (Salmonella typhimurium [1]; [15]) [%] | killing at 0.05 % (Salmonella typhimurium [1]; [16]) [%] | killing at 0.075 % (Salmonella typhimurium [1]; [17]) [%] | killing at 0.075 % (Salmonella typhimurium [1]; [18]) [%] | killing at 0.1 % (Salmonella typhimurium [1]; [19]) [%] | killing at 0.1 % (Salmonella typhimurium [1]; [20]) [%] | also measured |
| --- | --- | --- | --- | --- | --- | --- | --- | --- | --- | --- | --- | --- | --- | --- | --- | --- | --- | --- | --- |
| CCCCCC(=O)O [Caproic acid] | 0.103 | 0.063 | 1267 | 30 | 1433 | 7 | 523 | 0 | 27 | 0 | – | – | – | – | – | – | – | – | killing at 0.05 % (Salmonella typhimurium [1]; [11]): 10%; killing at 0.075 % (Salmonella typhimurium [1]; [11]): 67%; killing at 0.1 % (Salmonella typhimurium [1]; [11]): 98%; killing at […] (Salmonella typhimurium [1]; [11]): 21%; killing at 0.05 % (Salmonella typhimurium [1]; [12]): 100%; killing at 0.075 % (Salmonella typhimurium [1]; [12]): 100%; killing at 0.1 % (Salmonella typhimurium [1]; [12]): 100%; killing at […] (Salmonella typhimurium [1]; [12]): 98% |
